{"source": "paper PMC5117135", "about": "(ACS Chemical Biology, 2016)", "key": {"P. aeruginosa PA14": {"system": "P. aeruginosa PA14", "test": "Compound accumulation, LC-MS/MS quantitation of lysate", "format": "cell-based, Pseudomonas aeruginosa", "conditions": "1000 μM extracellular, 30 min"}, "[1]": {"system": "HHQ and PQS quinolone production in P. aeruginosa strain PA14", "test": "Inhibition of HHQ and PQS quinolone production, LC-MS/MS quantitation", "format": "cell-based, Pseudomonas aeruginosa", "conditions": "dose and time course over 24 h"}, "MvfR": {"system": "MvfR", "conditions": "binding to and activation of MvfR; cited from earlier work"}, "PqsA": {"system": "PqsA", "conditions": "read-out: Km as PqsA substrate; cited from earlier work"}}, "data": [{"smiles": "Nc1cccc(F)c1C(=O)O", "note": "[6FABA, 6-Fluoroanthranilate]", "values": [{"measurement": "penetration relative to the extracellular concentration applied", "setting": "P. aeruginosa PA14", "result": "2–3%"}, {"measurement": "intracellular concentration", "setting": "P. aeruginosa PA14; PA14 in LB, OD600 ≈ 0.5, calculated based on CFU", "result": "20 to 30", "unit": "µM"}, {"measurement": "lowest concentration that inhibited or delayed quinolone production", "setting": "[1]", "result": 100, "unit": "µM"}]}, {"smiles": "CCCCCCCc1nc2ccccc2c(O)c1O", "note": "[PQS, 3,4-dihydroxy-2-heptylquinoline]", "values": [{"measurement": "potency on MvfR relative to HHQ", "setting": "MvfR", "result": 100, "unit": "fold"}]}, {"smiles": "Nc1ccccc1C(=O)O", "note": "[anthranilate]", "values": [{"measurement": "Km", "setting": "PqsA", "result": 8, "unit": "µM"}]}, {"smiles": "O=C(O)c1ccccc1", "note": "[benzoate]", "values": [{"measurement": "Km", "setting": "PqsA", "result": 150, "unit": "µM"}]}]}
